Measured values reported in a melting point compilation (Tetko et al.; mined from patent text by program, amines drawn as free bases though some values may be those of a salt).

Compound	melting point
O=C(O)c1ccc(CNS(=O)(=O)c2ccc(Br)cc2)cc1	268 to 271 °C
NC(=O)c1ccc(I)c([N+](=O)[O-])c1	152 to 155 °C
COc1ccc2c(=O)[nH]c(-c3ccc(OCCO)c(-c4ccc(S(C)=O)cc4)n3)nc2c1 (centres undefined)	266 to 267 °C
O=C1c2ccccc2C2(O)Oc3cc4ccccc4cc3C12O (centres undefined)	220 to 221 °C
CCN(CC)C(=O)Cc1ccc(O)c(C(C)C)c1	112 to 113 °C
O=C(Nc1nc(-c2ccco2)c(C(=O)c2ccnc(N3CCOCC3)c2)s1)c1ccncc1	270 to 273 °C
COc1ccc2cnc(Nc3ccc(N4CCNCC4)cn3)nc2c1C1CCCC1	> 200 °C
COc1cc(C(=O)O)c(O)c2c1C(C)(C)CCC2(C)C	213 °C
CSc1nccn1CC(=O)NC1C(=O)N2C(C(=O)O)=C(CSc3nnc(C)s3)CSC12 (centres undefined)	220 °C
CCOC(=O)c1c(N)c2cccnc2n(CC)c1=O	205 to 208 °C
O=C(O)c1ccc(C(=O)Nc2cccc(Nc3nc(-c4cccnc4)cs3)c2)cc1	299 °C
O=C(c1ccc(F)cc1)c1ccnc(Cl)c1	60 to 63 °C
CCCCCCCCNCC(O)C(O)C(O)C(O)CO (centres undefined)	114 to 116 °C
O=C1Nc2cccc(/C=C/c3ccccc3Cl)c2/C1=C/c1ccc[nH]1	257 to 258 °C
N#Cc1ccc2c(c1)C[C@H](NS(=O)(=O)c1ccccc1)CN2C(=O)c1ccccc1	174 to 175 °C
Cc1cc(C(F)(F)C(F)(F)F)nc(N(C(N)=O)c2ccccc2[N+](=O)[O-])n1	156 °C
Cc1cnc(-c2ccncc2)nc1N	210 to 213 °C
O=C(Nc1ccc(F)cc1)c1ccc([N+](=O)[O-])cc1	143 to 146 °C
Cc1nc(NC(=O)c2cnn3c(C(F)(F)F)cc(-c4ccc(C(F)(F)F)cc4)nc23)sc1S(=O)(=O)NCCN(C)C	235 °C
COc1ccc(C2(C#Cc3cccc(-c4noc(C)n4)c3)CCCC(=O)C2)cc1OC1CCCC1 (centres undefined)	116 to 118 °C
Clc1ccc2[nH]c3c4ccccc4nc-3c(Cl)c2c1	281 to 282 °C
Cc1cc(NC(=O)c2ccccc2C)ccc1C(=O)O	231 to 233 °C
CN1C(=O)C(C(=O)Nc2ccccc2)c2cc3ccccc3cc2S1(=O)=O (centres undefined)	188 to 190 °C
CN1CCCC1=NC(=S)Nc1ccccc1	142 to 144 °C
CC(C)OC(=O)c1cc(-n2c(=O)[nH]c3c(c2=O)CCC3)c(F)cc1Cl	204 to 207 °C

Compound	melting point
Ic1nnnn1-c1ccccc1	123 to 129 °C
Cc1ccccc1OCc1ccccc1[N+](=O)[O-]	83 °C
CCNNc1nc(C)c(C(=O)OCC)c(Cl)c1[N+](=O)[O-]	117 to 120 °C
CN(C(=O)c1nnc2ccccc2c1O)c1ccc(Cl)cc1	249 to 253 °C
O=c1c2c(Cc3ccccc3)n[nH]c2c2cccnc2n1-c1cccc([N+](=O)[O-])c1	276 to 279 °C
CC1(C)CC(=O)Nc2cc3nc(-c4ccc(CO)cc4)[nH]c3cc21	214 to 232 °C
CCCc1nn2ncc(C(=O)OCC)c2n1Cc1ccc(-c2ccccc2-c2nnnn2C(c2ccccc2)(c2ccccc2)c2ccccc2)cc1	106 to 108 °C
COc1ccc(ON2CN=C(c3ccccc3F)O2)cc1	99.1 °C
CC(Cc1ccc(CCNS(=O)(=O)c2ccccc2)cc1)C(=O)O (centres undefined)	113 to 115 °C
O=C(O)c1cccc(-c2cccc(OCCc3cccc(C(F)(F)F)c3)n2)c1	135 to 136 °C
CN1CCC(C2(O)c3ccc(Cl)cc3Sc3ccc(F)cc32)CC1 (centres undefined)	133 to 142 °C
CC(C)(C)[Si](C)(C)Oc1ccc(CCNc2ncnc3nccnc23)cc1	164 to 165 °C
COC(=O)C(N)=Cc1ccc(OCC(O)CNC(C)C)c(Cl)c1 (centres undefined)	122 to 123 °C
O=C(c1ccccc1)c1cc(Cl)ccc1CCCN1C(=O)c2ccccc2C1=O	94 to 97 °C
CCCCc1oc2ccccc2c1C(=O)Nc1ccc2c(Br)c(O)ccc2c1	195 to 197 °C
NC(=NO)c1cc2c(cn1)[nH]c1ccccc12	159 to 163 °C
CC(C)(C)OC(=O)Nc1cc(N2CCC(OCCOC3CCCCO3)CC2)c(-c2ccc(F)cc2)cc1N (racemic)	56 to 58 °C
c1ccc(CSCC2CCn3c(nc4ccccc43)S2)cc1 (centres undefined)	97 to 99 °C
Cn1c(=O)c2[nH]c(C=Cc3cccc(C(F)(F)F)c3)nc2n(C)c1=O	> 300 °C
CN(C(=O)CCSC(c1ccccc1)(c1ccccc1)c1ccccc1)c1nnc(-c2cccnc2)s1	60 to 75 °C
COC(=O)C=Cc1cn(C)nc1[N+](=O)[O-]	110 to 112 °C
CC(=O)COc1cc2oc(=O)cc(C)c2cc1C	190 °C
CC(=O)NCc1ccc(C(C)O)cc1 (centres undefined)	61 to 62 °C
CCOC(=O)c1ccnc(NC(=O)CCc2ccccc2)c1	107 to 108 °C
CCCCOc1cc(OCCCc2cn(-c3ccc(C(F)(F)F)cn3)nc2OCC)ccc1CCC(=O)O	123 to 124 °C

Compound	melting point
O=C1N(Cc2ccc(C(F)(F)F)o2)c2cccc(-c3cncnc3)c2C12COc1cc3c(cc12)CCO3 (centres undefined)	263 to 266 °C
CCCc1nc(OC)c(N(C)C(=O)N2CCN(c3cc(OC)cc(OC)c3)CC2)cc1C	106 to 107 °C
CC(C)(C)c1cc(C(=O)c2ncc[nH]2)cc(C(C)(C)C)c1O	286 to 288 °C
COc1cc2nc(N3CCc4cc(OCc5ccccc5)c(OC)cc4C3)cc(N)c2cc1OC	181 to 182 °C
CC(=O)NC=Cc1ccc(OCC(O)CNC(C)C)cc1 (centres undefined)	144 to 146 °C
CC12CC=C3c4ccc(O)cc4CCC3(C=C(F)F)C1CCC2O (centres undefined)	103 to 106 °C
CC(=O)CS(=O)(=O)N(C)C	47 to 49 °C
CC(=O)c1nc(-c2ccncc2C)[nH]c1C	185 to 187 °C
CN[C@@H]1CN(c2nc3c(cc2F)c(=O)c(C(=O)O)cn3C(C)(C)C)[C@H]1C (relative stereo)	185 to 187 °C
CCCCCS(=O)(=O)NC(=O)/C=C/c1c(C)cc(C)n1Cc1ccc(Cl)cc1Cl	170 to 171 °C
CCCCCc1c(C(=O)O)nn(-c2ccc(Cl)cc2Cl)c1-c1ccc(Cl)cc1	187 °C
CC(C)(C)NCC(Cc1ccc(OCc2ccccc2)cc1)NCc1ccc(C(C)(C)C)cc1 (centres undefined)	63 to 65 °C
CCCCCCCCCCC[C@H](CC(=O)N[C@@H](CO)C(=O)OCc1ccccc1)OC(=O)CCCCCCCC	52 to 53 °C
CCCCNC(=O)C(O[Si](C)(C)C(C)(C)C)c1ccccc1O (centres undefined)	72 to 74 °C
COc1cc(C(=O)O)ccc1CC(=O)Nc1cccc(/C=C/c2nc(C3CCC3)cs2)c1	242 to 243 °C
CNn1c(N(C)C)nn(C(=O)NC2CCCC2)c1=O	137 °C
Cc1cccc(C2CNCCN2C(=O)N(c2ccccc2)c2ccccc2)c1 (centres undefined)	119 to 121 °C
N#Cc1ccc(OC2CCOC2=O)cc1C(F)(F)F (centres undefined)	107 to 108 °C
CN(Cc1cc2c(=O)c(C(=O)NCc3ccc(Cl)cc3)cn(C)c2o1)CC(O)c1ccccn1 (centres undefined)	130 to 132 °C
CCOP(=O)(CNCc1ccnc(-c2cc(C(C)(C)C)c(O)c(C(C)(C)C)c2)c1)OCC	66 to 69 °C
CCOC1=C(C#N)S(=O)(=O)N=C1N	236 to 238 °C
O=C1c2ccccc2-c2c1c1ccccc1c(=O)n2CCCCCCNS(=O)(=O)c1ccccc1	150 to 152 °C
CC12CCC=CC1=CCC1C2CCC2(C)C(OS(=O)(=O)C(F)(F)F)=CCC12 (centres undefined)	75 to 76 °C
Cc1ccsc1-c1nc(COc2ccc(CCCn3ccnc3)cc2)co1	72 to 73 °C
CCOC(=O)C(=CNC1CC1)C(=O)c1cc(Cl)c(F)c(F)c1F	71 to 73 °C

Compound	melting point
CN(CCO)Cc1cc(C(=O)c2ccccc2)cc(C2CCCCC2)c1O	92 to 93 °C
CNC(=O)c1ccccc1Nc1nc(Nc2ccc3c(c2)CCN(S(C)(=O)=O)CC3)ncc1Cl	251 to 256 °C
Cc1cc(Cc2cc(C(C)(C)C)cc(C(C)(C)C)c2O)c(O)c(-n2nc3ccccc3n2)c1	171 °C
Cc1ccc(OCCCCCCN2CCN(c3nccs3)CC2)cc1	37 to 39 °C
O=C1N(CCCCN2CCN(c3n[nH]c4cc(F)ccc34)CC2)CSC12CCCCC2	163 to 165 °C
Fc1cccc(CC[C@H]2CNCCN2)c1	95 to 99 °C
CC(=O)CCc1cc(F)c2ncc(C(=O)NCc3ccc(Cl)cc3)c(O)c2c1	218 to 222 °C
Cc1cccc(NC(=O)NCC(=O)N(CC(=O)N(C)c2ccccc2)c2ccccc2Cl)c1	180 °C
CNc1cccc(-c2ccnc3c(C(=O)c4ccccc4)cnn23)c1	134 to 136 °C
Nc1nc(N)nc(Cc2nc3ccccc3n2-c2ccccc2)n1	337 to 340 °C
CCCCc1csc2ccc3[nH]c4c(c3c12)CN(C)CC4	192 to 193 °C
Cc1cccc(OC(=O)N2CCCC2=O)c1	58 to 59 °C
CCOC(=O)Cc1c(CC)nn(-c2ccccc2)c1CC	129 to 130 °C
CC(C=CCO)Oc1ccc(Oc2cnc3cc(F)ccc3n2)cc1 (centres undefined)	109 to 111 °C
Cc1cn(C)c2ccc(NC(=O)Nc3cccnc3)cc12	210 °C
O=C1Nc2ccc(Cl)cc2C2(c3ccccc3)NCCCN12 (centres undefined)	275 to 276 °C
CC1CC(=O)NN=C1c1ccc2c(c1)nc(C1CC1)n2Cc1ccc(-c2ccccc2-c2nnn[nH]2)cc1 (centres undefined)	265 °C
N#Cc1nc(N)c(-c2ccccc2)nc1C#N	167 to 168 °C
O=C(Nc1cc(-c2nc(Cc3ccccc3)no2)ccn1)c1ccccc1	150 to 151 °C
CC[C@H](C)[C@@H]1NC(=S)c2ccccc2/C1=C/C(=O)OC	193 to 196 °C
Cc1c(C(N)=O)oc2c(C(=O)NCCCN3CCN(c4cc(Cl)ccc4OS(=O)(=O)C(F)(F)F)CC3)cccc2c1=O	150 to 156 °C
CC(=O)ONC(=N)c1ccc(-c2ccc(-c3ccc(C(=N)NOC(C)=O)o3)o2)cc1	212 to 213 °C
CCCCC1(CC)CS(=O)(=O)c2ccccc2N(c2ccccc2)C1=O (centres undefined)	57.6 °C
Cc1cc(CCCCCOc2cc(Cl)c(-c3nnc(C)o3)c(Cl)c2)on1	71 to 72 °C
